The conditions of data set [1]: except at very acidic pH; cited from earlier work.
Data set [2] can be described thus: Zeta potential measurements. Conditions: uncoated. Type of data set: physicochemical. As for the experimental part:
Zeta potential analysis was performed in on a NanoBrook ZetaPlus Zeta Plus instrument from Brookhaven Instruments.

This is an account of results in patent US11425924B2, “Composition and method for controlled-release of amino acids” (Glanbia Nutritionals, Ltd., priority 2018, dated 2022).

≈ marks a conversion by molar mass, not a printed value.

Take `CC(C)C[C@H](N)C(=O)O` [Leucine (L-Leucine), L-Leucine]: the solubility in water in data set [1] was 24.3 mg/mL (≈ 185 mM). Moreover, the surface charge result in data set [2] is “positive charge”.
